According to patent publication US10738028B2, “Spiro three-membered ring, spiro five-membered ring peptide deformylase inhibitor and use thereof in antibacteria and anti-tumor” (priority 2016, dated 2020):

Key:
Assay type in all cases: cell-based
[1] = tested on: methicillin-sensitive Staphylococcus aureus (MSSA); test: MIC, two-fold agar dilution (CLSI), clinical isolates
Description: (§1) 1. The invention adopts the two-fold agar dilution method recommended by the operating procedure of antimicrobial susceptibility testing set by American Clinical and Laboratory Standards Institute (CLSI) to determine the Minimum Inhibitory Concentration (MIC) of the test samples against the tested strains.

[2] = tested on: Enterococcus faecalis (EFA); test: as above
Description: as §1

[3] = tested on: Streptococcus pneoumoniae (SPN); test: as above
Description: as §1

[4] = tested on: methicillin-resistant Staphylococcus aureus (MRSA); test: as above
Description: as §1

[5] = tested on: Enterococcus faecium (EFM); test: as above
Description: as §1

[6] = tested on: Moraxella catarrhalis (BCA); test: as above
Description: as §1

[7] = tested on: methicillin-resistant Staphylococcus epidermidis (MRSE); test: as above
Description: as §1

[8] = tested on: methicillin-sensitive Staphylococcus epidermidis (MSSE); test: as above
Description: as §1

[9] = tested on: Escherichia coli (including ESBLs, non-ESBLs); test: as above
Description: as §1

[10] = tested on: HCT-116 colorectal cancer cell line; test: CCK-8 proliferation inhibition; details: Homo sapiens, HCT-116, 72 h, concentration of 30 μM; 72 hours; CCK-8; read-out: HCT116 inhibition rate/%
In short: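 HCT-116 cells, seeded at 2000 cells/well in McCoy's 5A with 10% newborn bovine serum, were cultured overnight at 37° C., 5% CO2, then exposed to compound dilutions in medium for 72 hours. Viability was read with 1:10 diluted CCK-8; controls received 1‰ DMSO.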

Compound: CCCC[C@H](CC(=O)NO)C(=O)N1CC2(CC2)C[C@H]1C(=O)Nc1cc(C)on1 [Example 56, (S)-5-((R)-2-(2-(hydroxyamino)-2-oxoethyl)hexanoyl)-N-(5-methylisoxazol-3-yl)-5-spiro[2.4]heptane-6-carboxamide]
- Anti-bacterial activity (MIC), strain MSSA 15-3 ([1]; clinical isolate MSSA 15-3): 0.25 µg/mL
- Anti-bacterial activity (MIC), strain MSSA 15-4 ([1]; clinical isolate MSSA 15-4): 0.25 µg/mL
- Anti-bacterial activity (MIC), strain MSSA 15-5 ([1]; clinical isolate MSSA 15-5): 0.125 µg/mL
- Anti-bacterial activity (MIC), strain MSSA 15-6 ([1]; clinical isolate MSSA 15-6): 0.25 µg/mL
- Anti-bacterial activity (MIC), strain EFA 15-1 ([2]; clinical isolate EFA 15-1): 16 µg/mL
- Anti-bacterial activity (MIC), strain EFA 15-2 ([2]; clinical isolate EFA 15-2): 16 µg/mL
- Anti-bacterial activity (MIC), strain EFA 15-3 ([2]; clinical isolate EFA 15-3): 16 µg/mL
- Anti-bacterial activity (MIC), strain EFA 15-4 ([2]; clinical isolate EFA 15-4): 16 µg/mL
- Anti-bacterial activity (MIC), strain EFA 15-5 ([2]; clinical isolate EFA 15-5): 16 µg/mL
- Anti-bacterial activity (MIC), strain EFA 15-6 ([2]; clinical isolate EFA 15-6): 16 µg/mL
- Anti-bacterial activity (MIC), strain EFA 15-9 ([2]; clinical isolate EFA 15-9): 16 µg/mL
- Anti-bacterial activity (MIC), strain SPN 16-2 ([3]; clinical isolate SPN 16-2): 8 µg/mL
- Anti-bacterial activity (MIC), strain SPN 16-4 ([3]; clinical isolate SPN 16-4): 1 µg/mL
- Anti-bacterial activity (MIC), strain MRSA 15-1 ([4]; clinical isolate MRSA 15-1): 0.25 µg/mL
- Anti-bacterial activity (MIC), strain MRSA 15-2 ([4]; clinical isolate MRSA 15-2): 2 µg/mL
- Anti-bacterial activity (MIC), strain MRSA 15-3 ([4]; clinical isolate MRSA 15-3): 0.5 µg/mL
- Anti-bacterial activity (MIC), strain MRSA 15-4 ([4]; clinical isolate MRSA 15-4): 2 µg/mL
- Anti-bacterial activity (MIC), strain EFM 15-1 ([5]; clinical isolate EFM 15-1): 1 µg/mL
- Anti-bacterial activity (MIC), strain EFM 15-2 ([5]; clinical isolate EFM 15-2): 4 µg/mL
- Anti-bacterial activity (MIC), strain EFM 15-3 ([5]; clinical isolate EFM 15-3): 1 µg/mL
- Anti-bacterial activity (MIC), strain EFM 15-4 ([5]; clinical isolate EFM 15-4): 4 µg/mL
- Anti-bacterial activity (MIC), strain EFM 15-5 ([5]; clinical isolate EFM 15-5): 1 µg/mL
- Anti-bacterial activity (MIC), strain EFM 15-6 ([5]; clinical isolate EFM 15-6): 4 µg/mL
- Anti-bacterial activity (MIC), strain BCA 14-1 ([6]; clinical isolate BCA 14-1): 4 µg/mL
- Anti-bacterial activity (MIC), strain BCA 14-4 ([6]; clinical isolate BCA 14-4): 4 µg/mL
- Anti-bacterial activity (MIC), strain BCA 14-5 ([6]; clinical isolate BCA 14-5): 1 µg/mL
- Anti-bacterial activity (MIC), strain BCA 14-6 ([6]; clinical isolate BCA 14-6): 8 µg/mL
- Anti-bacterial activity (MIC), strain BCA 14-7 ([6]; clinical isolate BCA 14-7): 2 µg/mL
- Anti-bacterial activity (MIC), strain BCA 14-8 ([6]; clinical isolate BCA 14-8): 2 µg/mL
- Anti-bacterial activity (MIC), strain BCA 14-10 ([6]; clinical isolate BCA 14-10): 2 µg/mL
- Anti-bacterial activity (MIC), strain MRSE 15-1 ([7]; clinical isolate MRSE 15-1): 0.125 µg/mL
- Anti-bacterial activity (MIC), strain MRSE 15-2 ([7]; clinical isolate MRSE 15-2): 2 µg/mL
- Anti-bacterial activity (MIC), strain MRSE 15-3 ([7]; clinical isolate MRSE 15-3): 0.25 µg/mL
- Anti-bacterial activity (MIC), strain MRSE 15-7 ([7]; clinical isolate MRSE 15-7): 0.5 µg/mL
- Anti-bacterial activity (MIC), strain MSSE 15-3 ([8]; clinical isolate MSSE 15-3): 0.25 µg/mL
- Anti-bacterial activity (MIC), strain MSSE 15-4 ([8]; clinical isolate MSSE 15-4): 0.06 µg/mL
- Anti-bacterial activity (MIC), strain MSSE 15-5 ([8]; clinical isolate MSSE 15-5): 0.06 µg/mL
- Anti-bacterial activity (MIC), strain MSSE 15-6 ([8]; clinical isolate MSSE 15-6): 0.06 µg/mL
- Anti-bacterial activity (MIC), strain ECO+ 15-1 ([9]; clinical isolate ECO+ 15-1): > 16 µg/mL
- Anti-bacterial activity (MIC), strain ECO+ 15-2 ([9]; clinical isolate ECO+ 15-2): > 16 µg/mL
- Anti-bacterial activity (MIC), strain ECO+ 15-3 ([9]; clinical isolate ECO+ 15-3): > 16 µg/mL
- Anti-bacterial activity (MIC), strain ECO+ 15-4 ([9]; clinical isolate ECO+ 15-4): > 16 µg/mL
- Anti-bacterial activity (MIC), strain ECO− 15-1 ([9]; clinical isolate ECO− 15-1): > 16 µg/mL
- Anti-bacterial activity (MIC), strain ECO− 15-2 ([9]; clinical isolate ECO− 15-2): > 16 µg/mL
- Anti-bacterial activity (MIC), strain ECO− 15-3 ([9]; clinical isolate ECO− 15-3): > 16 µg/mL
- Anti-bacterial activity (MIC), strain ECO− 15-4 ([9]; clinical isolate ECO− 15-4): > 16 µg/mL
- inhibition at 30 µM [10]: 10%
